Tests used:
HIF1A = test: Immunoblot of HIF1A levels after inhibitor treatment; format: cell-based, human
ES2 [1] = test: CellTiter-Glo viability assay, ES2; format: cell-based, human; settings: for IC50: Homo sapiens, ES-2, ES2, read-out: IC50 cellular viability (CellTiter-Glo)
Protocol: (§1) CellTiter-Glo (CTG) viability assays were performed per the manufacturer's instructions. Briefly, 5,000-10,000 cells were seeded per well in a 96 well plate then treated with either DMSO or EGLN1 inhibitor in doses indicated. […] Data presented are the average of three technical replicates.

OVTOKO = test: Long term proliferation assay, OVTOKO; format: cell-based, human; settings: dose-dependent
Excerpt: (§2) Data are representative of two independent experiments.

OVISE [2] = test: Long term proliferation assay, OVISE; format: cell-based, human; settings: for long term proliferation: OVISE, dose-dependent
Excerpt: (§9) Data presented are the average of three technical replicate wells when available, excluding wells where there were no live cells to passage. Data are representative of two independent experiments.

[3] = test system: not EGLN1-dependent cell lines; test: Colony formation assay, not EGLN1-dependent cell lines; format: cell-based, human
Excerpt: (§10) Media and drug were refreshed every 3-4 days for 10 days. Cells were fixed on the plate with 10% neutral buffered formalin (Thermo Fisher Scientific) and stained with 0.1% crystal violet in 10% ethanol. After plates were washed and dried, dye was extracted using 10% acetic acid. Absorbance of extracted dye samples at 595 nm was quantified using a Molecular Devices SpectraMax M5 Plate Reader. […] Data are representative of three independent experiments.

ES2 [4] = test: Long term proliferation assay, ES2; format: cell-based, human; settings: for long term proliferation: ES2; for proliferation: ES2 control sgRNA cells
Excerpt: as §9

[5] = test system: EGLN1-dependent cell lines; test: Colony formation assay, EGLN1-dependent cell lines; format: cell-based, human
Excerpt: as §10

EGLN1-dependent cells = test: CellTiter-Glo viability assay over 5 days; format: cell-based, human; settings: treated over 5 days
Protocol: CellTiter-Glo (CTG) viability assays were performed per the manufacturer's instructions. Briefly, 5,000-10,000 cells were seeded per well in a 96 well plate then treated with either DMSO or EGLN1 inhibitor in doses indicated. Following 3-6 days treatment (retreated at day 4) CTG compound was added and viability was measured. Data presented are the average of three technical replicates.

ES2 HIF1A knockout = test: Proliferation assay, ES2 HIF1A knockout cells; format: cell-based, human
Excerpt: as §9

TOV112D [6] = test: Long term proliferation assay, TOV112D; format: cell-based, human
Excerpt: as §2

tumors formed from ES2 = test: Microdevice delivery into ES2 tumors, immunohistochemistry; format: in vivo, mice; settings: ES2 (HIF1A WT) tumors, local microdevice delivery, 48 hours
Protocol: (§3) Female Athymic^Nu/Nu mice (8-10 weeks old) were used, were obtained from Jackson Laboratories and had access to food and water in appropriate housing conditions. All animal procedures performed at the Broad Institute were approved by the Institutional Animal Care and Use Committee (IACUC) and according to institutional regulations.
(§4) Devices were manufactured as previously described (42). Briefly, microscale devices at diameter […] and length 3 mm were manufactured and pure powder compounds were formulated in 50% PEG. Mice were subcutaneously delivered ovarian cancer cells and tumors were allowed to grow to 1 cm^2. Mice were anesthetized during implantation using 1% isoflurane. A 19-guage spinal biopsy needle (Angiotech) was inserted into the tumor and served as the location for the device to be implanted.
(§5) Immunohistochemistry was performed on 4 μm serial sections from formalin-fixed, paraffin-embedded (FFPE) tumor tissues. The samples were deparaffinized, rehydrated, and pretreated for antigen retrieval by microwave treatment. Immunostaining was done using cell proliferation marker Ki67 and cleaved caspase 3 (CCE) at the Koch Institute Microscopy Core Facility.
(§6) By inserting this microdevice directly into the tumor, the effect of FG-4592, Bay 85-3934 and VH298 in tumors was assessed in vivo. Specifically, ES2 cells were implanted with intact HIF1A (ES2) or HIF1A knockout (ES2 HIF1A KO) in immunodeficient mice and the tumors were allowed to grow to 1 cm^2 before implanting a microdevice containing the EGLN1 inhibitor FG-4592 and VHL inhibitor VH298. Following implantation, the tumors were collected after 48 hours and the tumors were sectioned and stained for proliferation with an antibody against Ki-67, a cellular marker for proliferating cells or Cleaved Caspase-3, a cellular marker for apoptosis.

[7] = test system: tumors formed from ES2 with HIF1A KO; test: Microdevice delivery into ES2 HIF1A KO tumors, immunohistochemistry; format: in vivo, mice; settings: local microdevice delivery, 48 hours
Protocol: as §3, §4, §5, §6

OVISE HIF1A knockout = test: Proliferation assay, OVISE HIF1A knockout cells; format: cell-based, human; settings: 10 uM and 20 uM
Excerpt: as §2
However, such depletion of HIF1A rescued EGLN1-sensitivity to FG-4592 in ES2 (FIG. 5C) and OVISE (FIG. 5D) (p<0.05) cell lines.

TOV112D [8] = test: Annexin V apoptosis by flow cytometry, TOV112D; format: cell-based, human; settings: 40 μM, 48 hours
Protocol: (§7) Flow cytometry was performed at the Broad Institute Flow Cytometry core using CFSE (5(6)-Carboxyfluorescein N-hydroxysuccinimidyl ester)—Cell Labeling Kit (Abcam ab113853) to label dividing cells with CFSE and analyzed on FL-1 Excitation(max) 492 nm, Emission(max) 517 nm. […] Dual labeling Annexin V with 7-Amino-Actinomycin (7-AAD) allowed quantification of apoptosis. Data are presented as the average of two technical replicates and are representative of three independent experiments. Data were analyzed using FlowJo data analysis.

ES2 [9] = test: Annexin V apoptosis by flow cytometry, ES2; format: cell-based, human; settings: ES2, 40 μM, 48 hours
Protocol: as §7

[10] = test system: sensitive cell lines (EGLN1-dependent); settings: up to 30 days, p<0.01
Protocol: Non-Cas9 expressing cells were plated on a 12 well or 6 well plate in triplicate with varying concentrations of FG-4592. Every 3-4 days cells were trypsinized, counted using Nexcelom Cellometer, and reseeded at equal densities with the same concentrations of FG-4592, IOX2, BAY85-3934 or VH298. Data presented are the average of three technical replicate wells when available, excluding wells where there were no live cells to passage.

ES2 [11] = test: CFSE proliferation by flow cytometry, ES2; format: cell-based, human; settings: ES2, increasing concentration, 48 hours
Protocol: (§8) Flow cytometry was performed at the Broad Institute Flow Cytometry core using CFSE (5(6)-Carboxyfluorescein N-hydroxysuccinimidyl ester)—Cell Labeling Kit (Abcam ab113853) to label dividing cells with CFSE and analyzed on FL-1 Excitation(max) 492 nm, Emission(max) 517 nm. Apoptosis was detected using PE Annexin V Apoptosis Detection Kit 1 (BD Biosciences 559763). Dual labeling Annexin V with 7-Amino-Actinomycin (7-AAD) allowed quantification of apoptosis. Data are presented as the average of two technical replicates and are representative of three independent experiments. Data were analyzed using FlowJo data analysis.

TOV112D [12] = test: CFSE proliferation by flow cytometry, TOV112D; format: cell-based, human; settings: increasing concentration, 48 hours
Protocol: as §8

OVISE [13] = test: Annexin V apoptosis by flow cytometry, OVISE; format: cell-based, human; settings: 40 μM, 48 hours
Protocol: as §7

TOV21G = test: Long term proliferation assay, TOV21G; format: cell-based, human; settings: dose-dependent
Excerpt: as §2

OVCAR4 = test: Annexin V apoptosis by flow cytometry, OVCAR4; format: cell-based, human; settings: OVCAR4, 40 μM, 48 hours
Protocol: as §7

TOV112D [14] = test: Colony formation assay in hypoxia, TOV112D; format: cell-based, human; settings: 5% oxygen
Excerpt: Data are representative of three independent experiments.

JHOC5 = test: Long term proliferation assay, JHOC5; format: cell-based, human; settings: JHOC5, dose-dependent
Excerpt: as §2

TOV112D [15] = test: CellTiter-Glo viability assay, TOV112D; format: cell-based, human; settings: 48 hours, increasing dose
Protocol: as §1, with “replicates. Data are representative of three independent experiments.” for “replicates.”

HIF1A activity = test: Hypoxia Response Element (HRE) luciferase reporter; format: cell-based, human; settings: 48 hours post-treatment, increasing dose
Protocol: The Hypoxia Response Element (HRE) was designed based on previous publications (18, 19) and was cloned with a luciferase reporter. The construct was then stably transfected to EGLN1 dependent and independent cell lines. Following transfection cells were treated with EGLN1 inhibitor for up to 6 days and luciferase activity was measured as a readout of HIF1A activity.

[16] = test system: EGLN1-dependent cell lines OVTOKO, OVISE and ES2; settings: hypoxia (5% oxygen) and normoxia
Protocol: Cells were plated at a low density (250-1000 cells/well) with varying concentrations of FG-4592 (Selleck) on 24 well plates. Media and drug were refreshed every 3-4 days for 10 days. Cells were fixed on the plate with 10% neutral buffered formalin (Thermo Fisher Scientific) and stained with 0.1% crystal violet in 10% ethanol. After plates were washed and dried, dye was extracted using 10% acetic acid. Absorbance of extracted dye samples at 595 nm was quantified using a Molecular Devices SpectraMax M5 Plate Reader. […] Data are representative of three independent experiments.
To test this hypothesis, colony-forming formation assays were performed in the context of normal culture conditions (normoxia) or in a hypoxic incubator at 5% oxygen (hypoxia).

O=c1c(-n2ccnn2)c[nH]n1-c1cc(N2CCOCC2)ncn1 [Molidustat]
HIF1A levels (immunoblot) (HIF1A; ES2 cells): increased HIF1A levels in a dose-dependent manner
HIF1A levels (immunoblot) (HIF1A; TOV112D cells): increased HIF1A levels in a dose-dependent manner
IC50 (ES2 [1]): 40 to 50 µM

O=C(O)CNC(=O)c1nc(Cl)c2ccccc2c1O [FG-2216]
sensitivity of ES2 to EGLN1 inhibitors (viability) (ES2 [1]; ES2, FIG. 11D): showed sensitivity

O=C(O)CNC(=O)c1c(O)c2ccccc2n(Cc2ccccc2)c1=O [IOX2]
long term proliferation (OVTOKO): reduced long term proliferation
long term proliferation (OVISE [2]): reduced long term proliferation
colony formation [3]: no effect
long term proliferation (ES2 [4]): reduced long term proliferation
colony formation [5]: reduced colony formation
viability (CTG) (EGLN1-dependent cells): reduced viability in a dose-dependent manner

Cc1ncsc1-c1ccc(CNC(=O)[C@@H]2C[C@@H](O)CN2C(=O)[C@@H](NC(=O)C2(C#N)CC2)C(C)(C)C)cc1 [VH298]
long term proliferation (OVTOKO): reduced long term proliferation
HIF1A levels (immunoblot) (HIF1A; ES2 cells): increased HIF1A levels in a dose-dependent manner
proliferation (ES2 HIF1A knockout; 100 uM): resistant to VHL1 inhibition
proliferation (TOV112D [6]): slightly decreased proliferation
long term proliferation (OVISE [2]): reduced long term proliferation
tumor cell apoptosis (Cleaved Caspase-3 immunostaining) (tumors formed from ES2): increased apoptosis
tumor cell proliferation (Ki-67 immunostaining) (tumors formed from ES2): reduction of proliferating cells
tumor cell apoptosis (Cleaved Caspase-3 immunostaining) [7]: dependent on intact HIF1A
tumor cell proliferation (Ki-67 immunostaining) [7]: dependent on intact HIF1A
long term proliferation (ES2 [4]): substantially decreased cell proliferation
proliferation (ES2 [4]; 100 uM): significantly reduced proliferation of control cells

COc1cccc2c1C(=O)c1c(O)c3c(c(O)c1C2=O)C[C@@](O)(C(=O)CO)C[C@@H]3O[C@H]1C[C@H](N)[C@H](O)[C@H](C)O1 [doxorubicin]
tumor cell apoptosis (Cleaved Caspase-3 immunostaining) (tumors formed from ES2): increased apoptosis
tumor cell proliferation (Ki-67 immunostaining) (tumors formed from ES2): reduced proliferation
tumor cell apoptosis (Cleaved Caspase-3 immunostaining) [7]: increased apoptosis
tumor cell proliferation (Ki-67 immunostaining) [7]: reduced proliferation

Cc1nc(C(=O)NCC(=O)O)c(O)c2ccc(Oc3ccccc3)cc12 [FG-4592]
proliferation (OVISE HIF1A knockout): resistant to EGLN1 inhibition
apoptosis (Annexin V stain) (TOV112D [8]): not increasing apoptosis
apoptosis (Annexin V stain) (ES2 [9]): increased apoptosis
long term proliferation [10]: significantly reduced long term proliferation
HIF1A levels (immunoblot) (HIF1A; ES2 cells): increased HIF1A levels in a dose-dependent manner
HIF1A levels (immunoblot) (HIF1A; TOV112D cells): increased HIF1A levels in a dose-dependent manner
cell proliferation (CFSE stain, flow cytometry) (ES2 [11]): reduced cell proliferation
cell proliferation (CFSE stain, flow cytometry) (TOV112D [12]): did not reduce cell proliferation
apoptosis (Annexin V stain) (OVISE [13]): increased apoptosis
proliferation (ES2 HIF1A knockout; 10 uM and 20 uM): resistant to EGLN1 inhibition
long term proliferation (TOV21G): reduced the long term proliferation
apoptosis (Annexin V stain) (OVCAR4): not increasing apoptosis
proliferation (OVISE [2]; OVISE control sgRNA cells, 10 uM and 20 uM): reduced proliferation of control cells
colony formation, sensitivity to inhibitor (TOV112D [14]): Increased sensitivity to EGLN1 inhibition was not observed
colony formation [3]: no effect
tumor cell apoptosis (Cleaved Caspase-3 immunostaining) (tumors formed from ES2): increased apoptosis
tumor cell proliferation (Ki-67 immunostaining) (tumors formed from ES2): dramatic reduction in proliferating cells
tumor cell apoptosis (Cleaved Caspase-3 immunostaining) [7]: no change
tumor cell proliferation (Ki-67 immunostaining) [7]: no change
long term proliferation (JHOC5): reduced long term proliferation
cell viability (CellTiter-Glo) (TOV112D [15]): no effect
proliferation (ES2 [4]; 10 uM and 20 uM): reduced proliferation of control cells
colony formation [5]: reduced colony formation
cell viability (CellTiter-Glo) (ES2 [1]; ES2, 48 hours, increasing dose): reduced viability
IC50 (ES2 [1]): 40 to 50 µM
HIF1A activity (HRE luciferase reporter) (HIF1A activity): increased in both EGLN1-dependent cell lines and cell lines not dependent on EGLN1
colony formation, sensitivity to inhibitor [16]: sensitive
viability (CTG) (EGLN1-dependent cells): reduced viability in a dose-dependent manner
